Test results reported in patent US20260216218A1, “CANNABINOID COMPOSITIONS, AND USES THEREOF IN TREATMENT OF NEURODEGENERATIVE DISEASES OR DISORDERS AND CANCERS” (Biopharmaceutical Research Company, priority 2023, published 2026).

System: BR5270 transgenic Caenorhabditis elegans strain
Assay: Survival (lifespan) in the preclinical Tau C. elegans model
Assay type: in vivo
Details: for Survival of C. elegans: 40 μM; for % Alive: BR5270, 40 μM
Experimental: Many neurodegenerative diseases and conditions associated with neuronal insult are characterized by intracellular aggregates of the microtubule associated protein Tau. […] Due to the significant impact on lifespan and locomotion defect produced by this model, time/cost-effective and high throughput acquisition of data, the C. elegans model of tauopathy serves as an advantageous screening tool for the discovery of novel modulators of neurodegeneration.
Cannabinoid botanical drug substances (20 μM, 40 μM, 80 μM) were prepared in accordance with the protocol described in Example 1 above. The exemplary cannabinoid botanical drug substance used in the study of this example includes CBD, CBG and THC present as the major components in a ratio of 50:20:1.
The effect of the two different complex botanical mixtures described above were compared to the comparative control, cannabidiol (40 μM) and a no treatment negative control in the BR5270 transgenic strain. Additional no-treatment negative control and healthspan extension positive control (cannabidiol 40 μM) in wild-type arms served as added comparators. All examinations were performed in triplicate. The impact of three doses of each compound on animal survival and activity levels were examined on days 4, 8, 12, and 16 of animal life. These time points represent the first day of adulthood, early-, mid-, and late-life periods in the C. elegans lifespan.

C=C(C)[C@@H]1CCC(C)=C[C@H]1c1c(O)cc(CCCCC)cc1O [CBD, cannabidiol]
Survival of C. elegans (Day 12 (Table 1b summary)): 39 | Survival of C. elegans (Day 16 (Table 1b summary)): 10 | % Alive (day 4 of animal life): 100% | % Alive (day 8 of animal life): 73.17% | % Alive (day 12 of animal life): 39.39% | % Alive (day 16 of animal life): 9.738%
